Earlier results, collected in US20020048596A1, “PREPARATION FOR THE TRANSPORT OF AN ACTIVE SUBSTANCE ACROSS BARRIERS” (priority 1999, published 2002).
Where two headings read alike, the source gives them in different places.

Compound | CMC (in water / suspension medium) | further results
CCCCCCCCCC(=O)OC[C@H](COP(=O)([O-])OCC[N+](C)(C)C)OC(=O)CCCCCCCCC [didecanoyl phosphatidyl choline] | – | CMC (unit not given): CMC ∞ 10^−6
CC(C)Cc1ccc(C(C)C(=O)O)cc1 (stereo not shown) [ibuprofen, reference compound] | – | solubility: ibuprofen, solubility ≦ 5 × 10^−5M
distearoyl glycerophosphoethanolamine triazopolyethylene glycol (5000) | CMC = 10^−5M | –
distearoyl phosphomaltobionamide | CMC = 10^−5 M | –
